Patent publication US20210113501A1, “METHOD OF ADMINISTERING BETA-HYDROXY-BETA-METHYLBUTYRATE (HMB)” (Metabolic Technologies, Inc., priority 2009, published 2021)

Tested on: protein degradation in muscle
Test: Urinary 3-methylhistidine to creatinine ratio after an acute exercise bout
Format: in vivo, human
Procedure: Subjects: We conducted a study at the Iowa State University Health and Human Performance Laboratory; this study was approved by the Iowa State University Institutional Review Board, and was registered at ClinicalTrials.gov (NCT01150526). We recruited 12 men and 13 women between the ages of 20 and 36 from the Iowa State University community and surrounding area.
Treatments: The experimental design is depicted in FIG. 8.
Five treatments were administered as follows: Treatment 1: Placebo. This group received a placebo capsule and a placebo syringe dosage at each dosage administration. Treatment 2: CaHMB pre-exercise. This group received a CaHMB capsule and a placebo syringe dosage 30 min prior to the acute exercise bout. The remaining additional dosages during the study consisted of one placebo capsule and one placebo syringe dosage. Treatment 3: HMB-acid gel pre-exercise. This group received a placebo capsule and a syringe dosage of HMB-acid gel 30 min prior to the acute exercise bout. The remaining additional dosages during the study consisted of one placebo capsule and one placebo syringe dosage. Treatment 4: CaHMB pre- and post-exercise. This group received a CaHMB capsule and a placebo syringe dosage at all administration times during the study. Treatment 5: HMB-acid gel pre- and post-exercise. This group received a syringe dosage of HMB-acid gel and one placebo capsule at all administration times during the study.
To blind the treatments to both the researchers and subjects, each subject took a capsule and syringe dosage of supplement at each administration. The capsules contained either one gram of calcium lactate (Placebo) or one gram of calcium β-hydroxy-β-methylbutryate (CaHMB). The syringe dosages were formulated to be similar in taste and appearance and contained either 0.8 g of corn syrup (Placebo) or 0.8 g of β-hydroxy-β-methylbutryate free acid, the same amount of HMB as in the capsule dosage. The 3 daily doses provided the same total HMB dosage (2.4 g as calcium HMB in the capsules or 2.4 g as HMB free acid in the syringes).
Eccentric Exercise Bout: Subjects refrained from vigorous exercise for three days before reporting to the laboratory. All subjects were studied after an overnight fast. […] Subjects then consumed their assigned supplement and 30 minutes later the eccentric exercise session was performed. The exercise consisted of 50 maximal effort contractions of knee extensors while attempting to resist the Biodex lever arm as it moves the knee joint from full extension to 90 degrees flexion; this is similar to letting a heavy weight down slowly while in a seated position. Each contraction lasted about 2 seconds and 12 seconds were allowed between contractions. This protocol was performed on the right leg followed by the left leg. The subjects received 2 more daily dosages of treatment (placebo or HMB) with instructions to take the dosages at lunch and dinner. For the next 4 days the subjects returned to the laboratory fasted each morning, had blood taken and urine collected and then consumed the morning dosage of their supplement. The subjects were again given the 2 remaining daily supplement dosages with instructions to take them at lunch and dinner.
Serum and Urine Samples: A fasting blood sample was taken from a superficial forearm vein each morning when the subjects reported to the laboratory for testing. Additionally a clean catch urine sample was collected at this time. Serum CPK was analyzed by a commercial laboratory (Quest Diagnostics, Madison N.J.). Urine 3-Methylhistidine (3MH) was analyzed by a previously published GC/MS method (9). Urinary creatinine was analyzed by colorimetric assay (Cayman Chemical Company, Ann Arbor, Mich.). The urinary 3MH data was normalized to urinary creatinine and expressed as 3MH:creatinine ratio, μmol:mg.
Statistics: Data were analyzed using the mixed model procedure in Statistical Analysis System for Windows (Release 9.1.3, SAS Institute, Cary, N.C.). […]

Compound: CC(C)(O)CC(=O)[O-].CC(C)(O)CC(=O)[O-].[Ca+2] [CaHMB, calcium β-hydroxy-β-methylbutryate, reference compound]
- 3MH:Cr (Baseline, dosed pre- and post exercise (Treatments 4, 5)): 0.205 ± 0.025 µmol/mg
- 3MH:Cr (Baseline, dosed pre-exercise only (Treatments 2, 3)): 0.164 ± 0.037 µmol/mg
- 3MH:Cr (at 24 h, dosed pre- and post exercise (Treatments 4, 5)): 0.203 ± 0.039 µmol/mg
- 3MH:Cr (at 24 h, dosed pre-exercise only (Treatments 2, 3)): 0.190 ± 0.027 µmol/mg
- 3MH:Cr (at 48 h, dosed pre- and post exercise (Treatments 4, 5)): 0.220 ± 0.027 µmol/mg
- 3MH:Cr (at 48 h, dosed pre-exercise only (Treatments 2, 3)): 0.240 ± 0.052 µmol/mg
- 3MH:Cr (at 72 h, dosed pre- and post exercise (Treatments 4, 5)): 0.231 ± 0.037 µmol/mg
- 3MH:Cr (at 72 h, dosed pre-exercise only (Treatments 2, 3)): 0.204 ± 0.058 µmol/mg
- 3MH:Cr (at 96 h, dosed pre- and post exercise (Treatments 4, 5)): 0.269 ± 0.038 µmol/mg
- 3MH:Cr (at 96 h, dosed pre-exercise only (Treatments 2, 3)): 0.187 ± 0.029 µmol/mg
